Patent publication US20030144346A1, “Methods and compositions for regulation of 5-alpha reductase activity” (priority 1997, published 2003)

Tests used:
[1] = target: T1, type 1 human 5α-reductase (HRED1) (Homo sapiens, UniProt P18405); assay: Whole cell assay of 5α-reductase, type 1 isoenzyme; assay type: cell-based; parameters: expressed in transfected cells; host or cells: rat 1A cells infected with pMV7 retrovirus;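 further: intact rat 1A cells engineered to express the human type 1 5α-reductase isozyme serve as the enzyme source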
T1 sequence (P18405 1-259): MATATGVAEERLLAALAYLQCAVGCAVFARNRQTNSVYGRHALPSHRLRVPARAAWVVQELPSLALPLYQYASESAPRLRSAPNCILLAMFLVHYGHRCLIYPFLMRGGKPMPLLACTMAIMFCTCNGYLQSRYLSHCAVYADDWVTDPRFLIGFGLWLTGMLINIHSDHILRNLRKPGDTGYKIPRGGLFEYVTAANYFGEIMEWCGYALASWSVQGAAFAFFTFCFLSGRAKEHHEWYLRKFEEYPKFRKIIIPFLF

[2] = target: T2, type 2 human 5α-reductase (HRED2) (Homo sapiens, UniProt P31213); assay: Whole cell assay of 5α-reductase, type 2 isoenzyme; assay type: cell-based; parameters: expressed in transfected cells; host or cells: rat 1A cells infected with pMV7 retrovirus; conditions: for inhibition at 100 µM / HRED2 % Inhibition @ 100 μM: Table 7; for IC50: Table 7, read-out: HCRED2 IC50;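 on all read-outs here: intact rat 1A cells genetically modified to carry human type 2 5α-reductase served as the enzyme source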
T2 sequence (P31213 1-254): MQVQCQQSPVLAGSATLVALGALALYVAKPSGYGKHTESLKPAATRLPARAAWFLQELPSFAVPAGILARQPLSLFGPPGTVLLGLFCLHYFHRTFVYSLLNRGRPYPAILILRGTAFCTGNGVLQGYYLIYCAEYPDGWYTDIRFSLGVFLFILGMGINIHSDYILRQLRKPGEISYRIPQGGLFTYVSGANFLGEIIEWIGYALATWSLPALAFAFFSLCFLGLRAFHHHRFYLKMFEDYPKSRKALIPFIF

[3] = target: T1, type 1 human 5α-reductase (HRED1); assay: Cell free assay of 5α-reductase, microsomes of rat 1A cells expressing type 1 isoenzyme (HRED1); assay type: biochemical; parameters: expressed in transfected cells; host or cells: rat 1A cells infected with pMV7 retrovirus; microsomes; conditions: for HRED1 % Inhibition @ 100 μM: Table 5; for inhibitory activity against type 1 isoenzyme, in words: cell-free assay;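 on all read-outs here: microsomes from rat 1A cells expressing human type 1 5α-reductase, conversion of radiolabeled testosterone to dihydrotestosterone quantified by thin layer chromatography with radioanalytic scanning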
[4] = target: T2, type 2 human 5α-reductase (HRED2); assay: Cell free assay of 5α-reductase, microsomes of rat 1A cells expressing type 2 isoenzyme (HRED2); assay type: biochemical; parameters: expressed in transfected cells; host or cells: rat 1A cells infected with pMV7 retrovirus; microsomes; conditions: for HRED2 % Inhibition @ 100 μM: Table 5;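 on all read-outs here: labeled testosterone and its product dihydrotestosterone measured in microsomal reaction extracts via thin layer chromatography plus radioanalytic scanning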
[5] = whole cell assay, Table 7, read-out: HCRED1 IC50
[6] = cell free assay, Table 5 epigallocatechin derivatives, read-out: HRED1 IC50
[7] = cell free assay, Table 5 epigallocatechin derivatives, read-out: HRED2 IC50
[8] = 100 uM, cell free assay, Table 2
[9] = cell free assay, Table 2 catechols, read-out: HRED1 IC50
[10] = cell free assay, Table 2 catechols, read-out: HRED2 IC50
[11] = HCRED1 IC50, whole cell assay, Table 7
[12] = read-out: HRED1 % Inhibition @ 100 μM
[13] = 100 uM, cell free assay, Table 2, read-out: HRED1 % Inhibition @ 100 uM
[14] = 100 uM, cell free assay, Table 2, read-out: HRED2 % Inhibition @ 100 uM

Structure (SMILES)	IC50 [2] [µM]	HRED1 % Inhibition @ 100 μM ([1]; whole cell assay, Table 7) [%]	IC50 [1, 5] [µM]	HRED2 % Inhibition @ 100 μM [2] [%]	HRED1 % Inhibition @ 100 μM ([3]; cell free assay) [%]	IC50 [3, 6] [µM]	HRED2 % Inhibition @ 100 μM ([4]; 100 μM, cell free assay) [%]	IC50 [4, 7] [µM]	further results
Cc1cc2c(C(C)C)c(O)c(O)c(C=O)c2c(O)c1-c1c(C)cc2c(C(C)C)c(O)c(O)c(C=O)c2c1O [Gossypol]	6	–	–	–	–	–	–	–	IC50 [1]: 7 µM; inhibition at 100 µM ([1]; whole cell assay, Table 7): 100%; inhibitory activity in the whole cell assay, type 1 isoenzyme, in words ([1]; whole cell assay): active; inhibition at 100 µM [2]: 99%; IC50 [3]: 7 µM; inhibition at 100 µM ([3]; read-out: HRED1 % Inhibition @ 100 uM): 99%; IC50 [4]: 21 µM; inhibition at 100 µM ([4]; read-out: HRED2 % Inhibition @ 100 uM): 99%
COc1cc(C(=O)OC2Cc3c(O)cc(O)cc3OC2c2cc(O)c(O)c(O)c2)cc(OC)c1OC (stereo not drawn) [HZIV 63]	> 100	12	> 100	7	94	311	20	> 100	–
Cc1c(O)cc(C(=O)OC2Cc3c(O)cc(O)cc3OC2c2cc(O)c(O)c(O)c2)cc1O (stereo not drawn) [HZIV 68]	> 100	40	> 100	34	93	29	51	99	–
COc1cc(C(=O)OC2Cc3c(O)cc(O)cc3OC2c2cc(O)c(O)c(O)c2)cc(OC)c1O (stereo not drawn) [HZIV 75]	62	83	43	72	97	29	21	> 100	–
COc1cc(CCNC(=O)C=Cc2ccc(O)c(O)c2)ccc1O [HZIV 90]	> 100	34	> 100	14	–	–	–	–	HRED1 % Inhibition @ 100 uM [3, 8]: 23%; IC50 [3, 9]: > 100 µM; HRED2 % Inhibition @ 100 uM [4, 8]: 13%; IC50 [4, 10]: > 100 µM
CN(C)c1ccc(C(=O)OC2Cc3c(O)cc(O)cc3OC2c2cc(O)c(O)c(O)c2)cc1 (stereo not drawn) [HZIV 92]	80	94	64	62	98	23	45	> 100	–
O=C(OC1Cc2c(O)cc(O)cc2OC1c1cc(O)c(O)c(O)c1)c1ccncc1 (stereo not drawn) [HZIV 107]	> 100	23	> 100	2	52	98	39	> 100	–
O=C(OC1Cc2c(O)cc(O)cc2OC1c1cc(O)c(O)c(O)c1)c1ccc2ccccc2c1 (stereo not drawn) [HZIV 120]	57	97	49	96	99	23	97	66	–
CCCCCC=CCC=CCC=CCCCCC(=O)OC1Cc2c(O)cc(O)cc2OC1c1cc(O)c(O)c(O)c1 (stereo not drawn) [HZIV 142]	14	99	8	98	97	25	93	63	–
O=C(OC1Cc2c(O)cc(O)cc2OC1c1cc(O)c(O)c(O)c1)C1CCCCC1 (stereo not drawn) [HZIV 144]	> 100	12	> 100	7	88	49	38	> 100	–
CC(=O)OC1Cc2c(O)cc(O)cc2OC1c1cc(O)c(O)c(O)c1 (stereo not drawn) [HZIV 145]	> 100	8	> 100	9	35	> 100	8	> 100	–
CCCCCCCCCCCCCCCCCC(=O)OC1Cc2c(O)cc(O)cc2OC1c1cc(O)c(O)c(O)c1 (stereo not drawn) [HZIV 148]	74	90	42	81	31	> 100	0	> 100	–
CCCCC=CCCCCCCCC(=O)OC1Cc2c(O)cc(O)cc2OC1c1cc(O)c(O)c(O)c1 (stereo not drawn) [HZIV 160]	8	99	7	98	99	29	96	76	inhibitory activity in the whole cell assay, type 1 isoenzyme, in words ([1]; whole cell assay): effective; inhibitory activity against type 1 isoenzyme, in words [3]: effective
CCCCCC(=O)OC1Cc2c(O)cc(O)cc2OC1c1cc(O)c(O)c(O)c1 (stereo not drawn) [HZIV 169]	> 100	10	> 100	0	90	47	39	> 100	–
COc1cc(C(=O)C=Cc2ccc(N(C)C)cc2)cc(OC)c1OC [HZIV-82]	> 100	79	3	15	–	–	–	–	inhibitory activity in the whole cell assay, type 1 isoenzyme, in words ([1]; whole cell assay): very active; HRED1 % Inhibition @ 100 uM [3, 8]: 43%; IC50 [3, 9]: > 100 µM; inhibitory activity against type 1 isoenzyme, in words [3]: little activity; HRED2 % Inhibition @ 100 uM [4, 8]: 0%; IC50 [4, 10]: > 100 µM
O=c1c(O)c(-c2ccc(O)cc2)oc2cc(O)cc(O)c12 [Kaempferol]	20	–	79	–	–	–	–	–	inhibition at 100 µM ([1]; whole cell assay, Table 7): 60%; inhibitory activity in the whole cell assay, type 2 isoenzyme, in words [2]: significant inhibitory activity; inhibition at 100 µM [2]: 85%; inhibition at 100 µM ([3]; 100 uM, cell free assay, Table 1, read-out: HRED1 % Inhibition @ 100 uM): 22%; IC50 ([3]; cell free assay, Table 1 flavanoids, read-out: HRED1 IC50): > 100 µM; inhibition at 100 µM ([4]; 100 uM, cell free assay, Table 1, read-out: HRED2 % Inhibition @ 100 uM): 62%; IC50 ([4]; cell free assay, Table 1 flavanoids, read-out: HRED2 IC50): 12 µM
CCCCC/C=C\C/C=C\CCCCCCCC(=O)O [Linoleic Acid, Linoleic Acid C18:2 CIS 9,12]	25	–	40	–	–	–	–	–	IC50 ([3]; cell free assay, Table 6 fatty acids, read-out: HRED1 IC50): 9 µM; IC50 ([4]; cell free assay, Table 6 fatty acids, read-out: HRED2 IC50): 19 µM
CC1=CC(=O)c2ccccc2C1=O [Menadione]	79	–	–	–	–	–	–	–	inhibition at 100 µM ([1]; whole cell assay, Table 7): 82%; IC50 [1, 11]: 51 µM; inhibitory activity in the whole cell assay, type 1 isoenzyme, in words ([1]; whole cell assay): moderate activity; inhibition at 100 µM [2]: 62%; IC50 [3]: 6 µM; inhibitory activity against type 1 isoenzyme, in words [3]: potent cell-free inhibitors; inhibition at 100 µM [3, 12]: 77%; inhibition at 100 µM ([4]; 100 μM, cell free assay, Table 4, read-out: HRED2 % Inhibition @ 100 μM): 81%; IC50 ([4]; cell free assay, Table 4 quinones, read-out: HRED2 IC50): 5 µM; inhibitory activity against type 2 isoenzyme, in words ([4]; cell-free assay): potent cell-free inhibitors
COC(=O)c1cc(O)c(O)c(O)c1 [Methylgallate]	> 100	–	> 100	–	–	–	–	–	inhibition at 100 µM ([1]; whole cell assay, Table 7): 0%; inhibition at 100 µM [2]: 0%; inhibition at 100 µM [3, 13]: 5%; IC50 [3, 9]: > 100 µM; inhibition at 100 µM [4, 14]: 3%; IC50 [4, 10]: > 100 µM
CCCCCCCCOC(=O)c1cc(O)c(O)c(O)c1 [Octyl Gallate]	18	–	7	–	–	–	–	–	inhibition at 100 µM ([1]; whole cell assay, Table 7): 99%; inhibitory activity in the whole cell assay, type 1 isoenzyme, in words ([1]; whole cell assay): active; inhibition at 100 µM [2]: 94%; inhibition at 100 µM [3, 13]: 99%; IC50 [3, 9]: 27 µM; inhibition at 100 µM [4, 14]: 90%; IC50 [4, 10]: 58 µM
CCCCCCCC/C=C\CCCCCCCC(=O)O [Oleic Acid, Oleic Acid C18:1 CIS 9]	> 100	–	–	–	–	–	–	–	inhibition at 100 µM ([1]; whole cell assay, Table 7): 58%; IC50 [1, 11]: 83 µM; inhibition at 100 µM [2]: 45%; IC50 [3]: 10 µM; inhibition at 100 µM [3, 12]: 99%; IC50 [4]: 42 µM; inhibition at 100 µM ([4]; read-out: HRED2 % Inhibition @ 100 μM): 86%
